Experimental data taken from PubChem BioAssay AID212 (DTP/NCI, 2004).
“And” between values parts separate entries of the source, which are not always exact repeats. Equal values may be shown once. Records with an inconclusive call do not appear.

Tested on: BDF1 mice, colon carcinoma 38 sc, T/C %
Assay: NCI In Vivo Anticancer Drug Screen. Data for tumor model Colon Carcinoma 38 (subcutaneous) in B6D2F1 (BDF1) mice
Outline: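 Compound antitumor activity was assessed in mice carrying transplantable tumors. Survival or tumor size was recorded, and each value is the treated-group measurement divided by that of the vehicle-treated control group.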

[1] = endpoint: median tumor weight (est.), dose: 1.0 mg/kg/injection, schedule: Q07DX002 (ip), vehicle: saline, higher = larger tumour
[2] = endpoint: median tumor weight (est.), dose: 2.0 mg/kg/injection, schedule: Q07DX002 (ip), vehicle: saline, higher = larger tumour
[3] = endpoint: median tumor weight (est.), dose: 4.0 mg/kg/injection, schedule: Q07DX002 (ip), vehicle: saline, higher = larger tumour
[4] = endpoint: median tumor weight (est.), dose: 8.0 mg/kg/injection, schedule: Q07DX002 (ip), vehicle: Klucel (hydroxypropylcellulose) (HPC), higher = larger tumour
[5] = endpoint: median tumor weight (est.), dose: 8.0 mg/kg/injection, schedule: Q07DX002 (ip), vehicle: saline, higher = larger tumour
[6] = endpoint: median tumor weight (est.), dose: 16.0 mg/kg/injection, schedule: Q07DX002 (ip), vehicle: Klucel (hydroxypropylcellulose) (HPC), higher = larger tumour
[7] = endpoint: median tumor weight (est.), dose: 16.0 mg/kg/injection, schedule: Q07DX002 (ip), vehicle: saline, higher = larger tumour
[8] = endpoint: median tumor weight (est.), dose: 32.0 mg/kg/injection, schedule: Q07DX002 (ip), vehicle: Klucel (hydroxypropylcellulose) (HPC), higher = larger tumour
[9] = endpoint: median tumor weight (est.), dose: 32.0 mg/kg/injection, schedule: Q07DX002 (ip), vehicle: saline, higher = larger tumour

O=C1c2ccccc2C(=O)c2c(NCCNCCO)ccc(NCCNCCO)c21
T/C (endpoint: median survival time, dose: 20.0 mg/kg/injection, schedule: Q04DX004 (ip), vehicle: saline, higher = longer survival): 110 % of control
T/C (endpoint: median survival time, dose: 40.0 mg/kg/injection, schedule: Q04DX004 (ip), vehicle: saline, higher = longer survival): 110 % of control
T/C (endpoint: median survival time, dose: 80.0 mg/kg/injection, schedule: Q04DX004 (ip), vehicle: saline, higher = longer survival): 120 % of control
T/C [1]: 89 % of control
T/C (endpoint: median tumor weight (est.), dose: 1.5 mg/kg/injection, schedule: Q07DX003 (ip), vehicle: saline with Tween-80, higher = larger tumour): 47 % of control and 64 % of control
T/C [2]: 77 % of control
T/C (endpoint: median tumor weight (est.), dose: 3.0 mg/kg/injection, schedule: Q07DX003 (ip), vehicle: saline with Tween-80, higher = larger tumour): 81 % of control
T/C (endpoint: median tumor weight (est.), dose: 3.0 mg/kg/injection, schedule: Q07DX003 (ip), vehicle: saline, higher = larger tumour): 59 % of control and 72 % of control
T/C (endpoint: median tumor weight (est.), dose: 4.0 mg/kg/injection, schedule: Q07DX002 (ip), vehicle: acid diluted with saline, higher = larger tumour): 82 % of control
T/C [3]: 66 % of control
T/C (endpoint: median tumor weight (est.), dose: 6.0 mg/kg/injection, schedule: Q07DX003 (ip), vehicle: saline with Tween-80, higher = larger tumour): 11 % of control
T/C [4]: 107 % of control
T/C (endpoint: median tumor weight (est.), dose: 8.0 mg/kg/injection, schedule: Q07DX002 (ip), vehicle: acid diluted with saline, higher = larger tumour): 70 % of control
T/C [5]: 82 % of control
T/C (endpoint: median tumor weight (est.), dose: 8.0 mg/kg/injection, schedule: Q07DX003 (ip), vehicle: Klucel (hydroxypropylcellulose) (HPC), higher = larger tumour): 65 % of control
T/C (endpoint: median tumor weight (est.), dose: 8.0 mg/kg/injection, schedule: Q07DX003 (ip), vehicle: water, higher = larger tumour): 56 % of control
T/C [6]: 120 % of control
T/C (endpoint: median tumor weight (est.), dose: 16.0 mg/kg/injection, schedule: Q07DX002 (ip), vehicle: acid diluted with saline, higher = larger tumour): 39 % of control
T/C [7]: 48 % of control
T/C (endpoint: median tumor weight (est.), dose: 16.0 mg/kg/injection, schedule: Q07DX003 (ip), vehicle: Klucel (hydroxypropylcellulose) (HPC), higher = larger tumour): 54 % of control
T/C (endpoint: median tumor weight (est.), dose: 16.0 mg/kg/injection, schedule: Q07DX003 (ip), vehicle: water, higher = larger tumour): 47 % of control
T/C (endpoint: median tumor weight (est.), dose: 25.0 mg/kg/injection, schedule: Q07DX003 (ip), vehicle: Klucel (hydroxypropylcellulose) (HPC), higher = larger tumour): 46 % of control
T/C (endpoint: median tumor weight (est.), dose: 25.0 mg/kg/injection, schedule: Q07DX003 (iv), vehicle: Klucel (hydroxypropylcellulose) (HPC), higher = larger tumour): 4 % of control and 18 % of control and 25 % of control
T/C [8]: 65 % of control
T/C (endpoint: median tumor weight (est.), dose: 32.0 mg/kg/injection, schedule: Q07DX002 (ip), vehicle: acid diluted with saline, higher = larger tumour): 4 % of control
T/C [9]: 10 % of control
T/C (endpoint: median tumor weight (est.), dose: 32.0 mg/kg/injection, schedule: Q07DX003 (ip), vehicle: Klucel (hydroxypropylcellulose) (HPC), higher = larger tumour): 52 % of control
T/C (endpoint: median tumor weight (est.), dose: 32.0 mg/kg/injection, schedule: Q07DX003 (ip), vehicle: water, higher = larger tumour): 28 % of control
T/C (endpoint: median tumor weight (est.), dose: 50.0 mg/kg/injection, schedule: Q07DX003 (ip), vehicle: Klucel (hydroxypropylcellulose) (HPC), higher = larger tumour): 45 % of control
T/C (endpoint: median tumor weight (est.), dose: 50.0 mg/kg/injection, schedule: Q07DX003 (iv), vehicle: Klucel (hydroxypropylcellulose) (HPC), higher = larger tumour): 11 % of control and 17 % of control
T/C (endpoint: median tumor weight (est.), dose: 64.0 mg/kg/injection, schedule: Q07DX002 (ip), vehicle: Klucel (hydroxypropylcellulose) (HPC), higher = larger tumour): 26 % of control

Nc1nc(N)c2c(ccc3c2ccn3Cc2cccc([N+](=O)[O-])c2)n1
T/C (endpoint: median tumor weight (est.), dose: 3.12 mg/kg/injection, schedule: Q07DX002 (ip), vehicle: saline with Tween-80, higher = larger tumour): 85 % of control
T/C (endpoint: median tumor weight (est.), dose: 6.25 mg/kg/injection, schedule: Q07DX002 (ip), vehicle: saline with Tween-80, higher = larger tumour): 80 % of control
T/C (endpoint: median tumor weight (est.), dose: 12.5 mg/kg/injection, schedule: Q07DX002 (ip), vehicle: saline with Tween-80, higher = larger tumour): 72 % of control
T/C (endpoint: median tumor weight (est.), dose: 25.0 mg/kg/injection, schedule: Q07DX002 (ip), vehicle: saline with Tween-80, higher = larger tumour): 14 % of control

Nc1ncn(C2CC(O)C(CO)O2)c(=O)n1 (configuration not stated)
T/C (endpoint: median tumor weight (est.), dose: 0.5 mg/kg/injection, schedule: Q07DX002 (ip), vehicle: Klucel (hydroxypropylcellulose) (HPC), higher = larger tumour): 102 % of control
T/C (endpoint: median tumor weight (est.), dose: 0.5 mg/kg/injection, schedule: Q07DX002 (ip), vehicle: saline, higher = larger tumour): 90 % of control
T/C (endpoint: median tumor weight (est.), dose: 1.0 mg/kg/injection, schedule: Q07DX002 (ip), vehicle: Klucel (hydroxypropylcellulose) (HPC), higher = larger tumour): 113 % of control
T/C [1]: 99 % of control
T/C (endpoint: median tumor weight (est.), dose: 2.0 mg/kg/injection, schedule: Q07DX002 (ip), vehicle: Klucel (hydroxypropylcellulose) (HPC), higher = larger tumour): 86 % of control
T/C [2]: 75 % of control
T/C (endpoint: median tumor weight (est.), dose: 3.0 mg/kg/injection, schedule: Q07DX002 (ip), vehicle: saline, higher = larger tumour): 14 % of control and 34 % of control
T/C (endpoint: median tumor weight (est.), dose: 4.0 mg/kg/injection, schedule: Q07DX002 (ip), vehicle: Klucel (hydroxypropylcellulose) (HPC), higher = larger tumour): 106 % of control
T/C [3]: 43 % of control
T/C (endpoint: median tumor weight (est.), dose: 6.0 mg/kg/injection, schedule: Q07DX002 (ip), vehicle: saline, higher = larger tumour): 29 % of control and 46 % of control
T/C [4]: 60 % of control
T/C [5]: 28 % of control
T/C (endpoint: median tumor weight (est.), dose: 12.0 mg/kg/injection, schedule: Q07DX002 (ip), vehicle: saline, higher = larger tumour): 23 % of control
T/C [6]: 41 % of control
T/C [7]: 22 % of control
T/C [8]: 43 % of control
T/C [9]: 4 % of control

Cc1c(N)nc(C(CC(N)=O)NCC(N)C(N)=O)nc1C(=O)NC(C(=O)NC(C)C(O)CC(=O)NC(C(=O)NC(OC1OC(C)C(N)C(O)C1O)C(O)c1nc(-c2nc(C(=O)NCCCC(N)CC(=O)NCCCNCCCCN)cs2)cs1)C(C)O)C(OC1OC(CO)C(O)C(O)C1OC1OC(CO)C(O)C(OC(N)=O)C1O)c1cnc[nH]1 (configuration not stated)
T/C [2]: 56 % of control
T/C [3]: 43 % of control
T/C [5]: 25 % of control
T/C [7]: 19 % of control
T/C [9]: 6 % of control
